Reference: publication PMC8472597, “Neurosteroids: Structure-Uptake Relationships and Computational Modeling of Organic Anion Transporting Polypeptides (OATP)1A2” (Molecules, 2021)
Where “and” joins values, the source holds several entries; their conditions need not be identical. Equal entries are not always repeated. Where two headings read alike, the source gives them in different places.

Tests used:
[1] = system: MCF-7 cells; assay: Concentration-dependent cellular uptake of neurosteroids into MCF-7 cells, Michaelis-Menten / Eadie-Hofstee analysis; format: cell-based, human; conditions: 5–200 µM; for Transport Mechanism Type 1 Vmax / Km / Transport Mechanism Type 2 Vmax: 30 min, 37 °C, Eadie-Hofstee plot analysis
Method: MCF-7 human breast adenocarcinoma cells (HTB-22; RRID: CVCL_0031) were purchased from the American Type Culture Collection (ATCC, Manassas, VA, USA). The cells were cultured in standard conditions (37 °C, 5% CO2) using Dulbecco’s modified Eagle medium (DMEM) supplemented with L-glutamine (2 mM), heat-inactivated fetal bovine serum (10%), penicillin (50 U/mL), and streptomycin (50 μg/mL). Once the cells reached 80% confluence in culture bottles (75 cm^2), the cells were washed twice with DPBS solution and harvested by trypsinization. All the following experiments were carried out with passage number 9–22.
Concentrations of neurosteroids (1–11) were determined by HPLC.
5.03 software (GraphPad Software, San Diego, CA, USA).

[2] = system: OATP1A2; set-up: method as in PMID 31254566; Vmax: unit not given here; conditions: reference substrate; cited from earlier work
[3] = system: efflux transporters (P-gp, BCRP, MRPs); assay: Cellular uptake into MCF-7 cells in the presence of efflux inhibitors (elacridar, MK-571); conditions: 25 µM compound; for Efflux transporter substrate status: 50 µM elacridar and MK-571, pH 7.4, MCF-7 cells
Method: The competitive uptake of 25 µM neurosteroids (1–11) in the presence of efflux inhibitors, 50 µM elacridar (P-gp and BCRP), and 50 µM MK-571 (MRPs) at pH 7.4 was carried out as described above, and the concentrations of studied compounds were analyzed with HPLC methods (below), calculated according to the standard curve, and normalized with protein concentration measured to each 24-well plate.
Concentrations of neurosteroids (1–11) were determined by HPLC. The apparatus was comprised of an Agilent 1100 binary pump (Agilent Technologies Inc., Wilmington, DE, USA), 1100 micro vacuum degasser, HP 1050 Auto-sampler, HP 1050 variable wavelength detector, operating at 225 nm. The chromatographic separations were achieved on a Supelco Supelcosil LC-Si analytical column (4.6 mm x 250 mm, 5 ml) (Supelco Inc., Bellefonte, PA, USA) by using isocratic elution of water containing 0.1% phosphoric acid and ACN with ratio of 30:70. The retention times of the compounds were ca. 4.3–4.4 min at the flow rate of 1.0 mL/min at room temperature. […] These HPLC methods were accurate (100 ± 10% of nominal concentration), precise (RSD% <10%), and selective (no interfering peaks) over the range 0.1–2 μM.
All data analyses, including Michaelis-Menten and Eadie-Hofstee analyses, were performed using GraphPad Prism v. […] Statistical differences between groups were tested using one-way ANOVA, followed by a two-tailed Tukey’s multiple comparison test and presented as mean ± SD, with statistically significant difference denoted by * p < 0.05, ** p < 0.01, *** p < 0.001.

[4] = system: MCF-7 cells; conditions: human, 30 min, 25 µM
Method: For the cellular uptake experiments, MCF-7 cells were seeded at the density of 1 × 10^5 cells/well onto 24-well plates a day before the experiments. Cellular uptake of neurosteroids (1–11) dissolved in DMSO and diluted with HBSS or MES buffer containing 5% 2-hydroxypropyl-β-cyclodextrin (HP-β-CD) was studied by incubating the cells with the pre-warmed compound solutions (250 μL) at the concentrations of 1–200 μM, at pH 7.4 (HBSS buffer), or in parallel at 5.0 (MES buffer), at 37 °C for 30 min (uptake was linear with all compounds up to 30 min). Subsequently, the cells were washed three times with ice-cold buffer and lysed with 250 μL of NaOH (0.1 M) for 60 min. The lysates were diluted with acetonitrile (ACN) with a ratio of 1:3 and centrifuged at 10,000× g for 10 min. The samples were analyzed by high-performance liquid chromatography (HPLC) methods described below. The concentrations of each compound were calculated from the standard curve and normalized to protein concentration in each 24-plate that was determined as a mean of three samples by Bio-Rad Protein Assay, based on the Bradford dye-binding method, using BSA as a standard protein and measuring the absorbance (595 nm) by multiplate reader (EnVision, Perkin Elmer, Inc., Waltham, MA, USA).
Concentrations of neurosteroids (1–11) were determined by HPLC. […]

[5] = read-out: Transport Mechanism Type 1 Km
[6] = read-out: Transport Mechanism Type 2 Km

Row | SMILES | Transport Mechanism Type 1 Vmax [1] | Km [1, 5] [µM] | Transport Mechanism Type 2 Vmax [1] | Km [1, 6] [µM] | also measured
1 | C[C@H]1CCC2C3CC[C@@H]4C[C@H](NC(=O)CC(=O)O)CC[C@]4(C)C3CC[C@@]21C (some centres unmarked) [Compound 4] | 13.9 ± 6.7 pmol/mg/min | ~233 |  |  | 
2 | C[C@@]12CCCC1C1CC[C@@H]3C[C@H](NC(=O)CCC(=O)O)CC[C@]3(C)C1CC2 (some centres unmarked) [Compound 6] | 3.9 ± 0.5 pmol/mg/min |  | 10.2 ± 0.1 pmol/mg/min |  | 
3 | CC(C)(C)OC(=O)N[C@@H](CC(=O)O)C(=O)N[C@@H]1CC[C@]2(C)C3CC[C@]4(C)CCCC4C3CC[C@@H]2C1 (some centres unmarked) [Compound 7] | 3.0 ± 0.1 pmol/mg/min |  |  |  | 
4 | C[C@]12CC[C@@H]3c4ccc(OS(=O)(=O)O)cc4CC[C@H]3[C@@H]1CCC2=O [Compound E3S, Estrone-3-Sulfate] |  |  |  |  | Km [2]: 6.5 µM; Vmax [2]: 66 ± 8.5; efficacy [2]: 10.21
5 | CC(=O)[C@H]1CCC2C3CC[C@@H]4C[C@H](OC(=O)[C@@H](N)CCC(=O)O)CC[C@]4(C)C3CC[C@@]21C (some centres unmarked) [Compound 2] |  |  |  |  | Uptake profile over concentration (saturation of transporter) [1]: did not reach the saturation stage; Efflux transporter substrate status [3]: efflux phenomenon can be abolished; Cellular uptake in the presence of efflux inhibitors elacridar or MK-571 ([3]; 50 µM inhibitor, pH 7.4, MCF-7 cells): not affected
6 | C[C@@]12CCCC1C1CC[C@@H]3C[C@H](NC(=O)CCCC(=O)O)CC[C@]3(C)C1CC2 (some centres unmarked) [Compound 9] | 5.5 ± 0.6 pmol/mg/min | 9.2 | 26.5 ± 3.0 pmol/mg/min | 67.8 | 
7 | C[C@@]12CCCC1C1CC[C@@H]3C[C@H](OC(=O)[C@@H](N)CCC(=O)O)CC[C@]3(C)C1CC2 (some centres unmarked) [Compound 3] | 3.0 pmol/mg/min and 3.0 ± 0.4 pmol/mg/min | 7.7 | 8.2 pmol/mg/min and 8.2 ± 0.1 pmol/mg/min | 25.2 | 
8 | CC(C)(C)OC(=O)N[C@@H](CO)C(=O)N[C@@H]1CC[C@]2(C)C3CC[C@]4(C)CCCC4C3CC[C@@H]2C1 (some centres unmarked) [Compound 5] | 5.3 pmol/mg/min and 5.3 ± 0.4 pmol/mg/min | 76.4 | 34.7 ± 7.7 pmol/mg/min | ~960 | 
9 | CC(C)(C)OC(=O)N[C@@H](CCC(=O)O)C(=O)N[C@@H]1CC[C@]2(C)C3CC[C@]4(C)CCCC4C3CC[C@@H]2C1 (some centres unmarked) [Compound 10] |  | 23 |  | 282 | 
10 | C[C@@]12CCCC1C1CC[C@@H]3C[C@H](NC(=O)[C@@H](N)CCC(=O)O)CC[C@]3(C)C1CC2 (some centres unmarked) [Compound 11] | 17.2 ± 2.1 pmol/mg/min | 24.2 |  |  | 
11 | C[C@@]12CCCC1C1CC[C@@H]3C[C@H](NC(=O)[C@@H](N)CC(=O)O)CC[C@]3(C)C1CC2 (some centres unmarked) [Compound 8] | 8.0 ± 2.1 pmol/mg/min | 10.9 | 28.2 pmol/mg/min and 28.2 ± 0.1 pmol/mg/min | 42.8 | Cellular uptake at pH 5.5 compared to pH 7.4 [4]: increased the uptake of all neurosteroids, except of compound 8
12 | CC(=O)[C@H]1CCC2C3CC[C@@H]4C[C@H](O)CC[C@]4(C)C3CC[C@@]21C (stereo partly drawn) [Compound 1, 3α5β-Pregnanolone, reference compound] | 26.3 ± 4.2 pmol/mg/min | 55.4 |  |  | Efflux transporter substrate status [3]: substrates for all studied efflux transporters
